According to patent publication US4320148A, “2-Aminotetralin compounds, pharmaceutical compositions and method of producing central alpha1 agonist activity” (SmithKline Corporation, priority 1980, dated 1982):

Tested on: postjunctional alpha1 receptor (isolated rabbit ear artery segment)
Assay: postjunctional alpha1 agonist activity (EC50), isolated segment of rabbit ear artery
Assay type: cell-based
Conditions: isolated rabbit ear artery segment superfused with oxygenated Krebs solution; maximum response of the artery determined with norepinephrine; read-out: EC50 (dose required to produce 50% of the maximum response)
Protocol: A quantitation of postjunctional alpha1 agonist activity (EC50) is determined for compounds showing activity in the above test. This is accomplished by employing an isolated segment of rabbit ear artery. The segment is mounted in a chamber superfused with oxygenated Krebs solution. The segment is suspended between two tungsten wires, one attached to the chamber, the other to a force-displacement transducer so that smooth muscle tension can be measured directly. Before administration of the test drug, norepinephrine is administered in increasing concentration (10^-8 M to 3×10^-6 M) to determine maximum response of the artery. The dose required to produce 50% of the maximum response is the EC50.

Structure (SMILES)	EC50 [nM]
COc1ccc(OC)c2c1CCC(N)C2 (stereo not shown) [SK&F 87,696]	110
COc1ccc(OC)c2c1CCC(N(C)C)C2 (stereo not shown) [SK&F 88,444]	100
COc1ccc(SC)c2c1CC(N)CC2 (stereo not shown) [SK&F 89,748, 1,2,3,4-tetrahydro-8-methoxy-5-(methylthio)-2-naphthalenamine]	9.3
COc1ccc(SC)c2c1CC(N(C)C)CC2 (stereo not shown) [SK&F 89,900, 1,2,3,4-tetrahydro-8-methoxy-N,N-dimethyl-5-(methylthio)-2-naphthalenamine]	13
